Drawing on the METLIN SMRT retention time set (Domingo-Almenara et al. 2019), this text covers RP-LC retention time for 80 compounds.

This data set in a line: gradient 5% acetonitrile 3 min, to 50% in 2 min, to 85% in 15 min, held 3 min, 100 µL/min. The note with it: column: Zorbax Extend-C18 2.1 x 50 mm; eluents: water / acetonitrile, 0.1% formic acid. The method, boiled down:
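In both positive and negative ionization mode, a quadrupole time-of-flight mass spectrometer coupled to HPLC analyzed pure standards run in mixtures of ~100 molecules. The Zorbax Extend-C18 column (2.1 × 50 mm, 1.8 μm) was operated at 100 μL/min with water and acetonitrile, each containing 0.1% formic acid. The dead volume was 40 μL and the dwell volume 900 μL. Retention time came from adduct peaks that were computationally picked and individually inspected by hand.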
On to `Cn1cnc2ccc(-c3noc(CNS(=O)(=O)c4ccccc4)n3)cc21`, for which the RP-LC retention time is 739 s.
In the case of `COc1ccc(-c2ncc3c(n2)CCN(C(=O)Nc2ccc(F)c(Cl)c2)C3)cc1` it was 1020 s; in that of `CCC(=O)N1CCc2ccccc2C1C(=O)NCc1cccc(Br)c1` (stereo not given), 828 s; in that of `O=C(CCC1NC(=O)c2ccccc2NC1=O)Nc1ncn[nH]1` (stereo not given), 521 s.
The figure for `CC1(C(=O)NCc2ccc3c(c2)OCO3)Oc2cccnc2NC1=O` (stereo not given) is 672 s; for `CCN1CCN(CCNC(=O)c2cc3n(n2)CCCN(Cc2ccc(F)cc2)C3=O)CC1` it is 593 s.
With `Cc1noc(-c2ccc(OC3CN(C(=O)c4ccoc4)C3)cc2)n1`, the RP-LC retention time was determined as 781 s.
The figure for `O=C(O)c1ccc(-c2ccc(N3CCCCCC3)nc2)cc1` is 623 s; for `CCOC(=O)c1[nH]c(C)c(CCC(=O)N2CCC(C(=O)NCCc3ccc(C)cc3)CC2)c1C` it is 843 s; for `CC(=O)c1cccc(NC(=O)c2nc3nc(C)cc(C(F)F)n3n2)c1` it is 734 s.
In the case of `CCC(=O)N1CCc2c(C(=O)NC3CCCCCC3)cccc21` it was 887 s.
Turning to `Cc1cccc(NC(=O)C2CCN(S(=O)(=O)c3cc(C(=O)N(C)C)cs3)CC2)c1C`, the RP-LC retention time came to 790 s.
`Cc1cc(NC(=O)C2=COCCO2)no1` yielded an RP-LC retention time of 600 s.
Consider `Cc1ccc(-c2ccc(N3CCCC(C(=O)NCc4ccc5c(c4)OCO5)C3)nn2)cc1C` (stereo not given), for which the RP-LC retention time was 763 s.
The figure for `CC(C)c1ccc(NC(=O)C2CCN(C(=O)c3ncn4c3COC(c3ccc(F)cc3)C4)CC2)cc1` (stereo not given) is 949 s; for `N#CSc1ccc(NC(=O)c2ccc(-n3cnnn3)cc2)cc1` it is 754 s; for `COc1ccc(-c2noc(-c3nc(Cc4ccccc4)no3)n2)cc1` it is 1170 s.
The figure for `CCOC(=O)c1csc(NC(=O)Cn2cnc(C)cc2=O)n1` is 598 s.
In the case of `Cc1ccc(F)c(NC(=O)C(C)C2CCN(C(=O)Nc3ccc(Cl)cc3)CC2)c1` (stereo not given) it was 968 s; in that of `COc1ncc(C(=O)NCc2ccc(SC)cc2)cn1`, 747 s; in that of `CCOc1ccc(N2C(=O)CC(c3ccc(OC)c(OC)c3)CC2=O)cc1`, 841 s.
For the compound `O=C(NCc1ccccc1)C1CCCCN1S(=O)(=O)c1ccc(F)cc1` (stereo not given), the RP-LC retention time came out at 940 s.
The compound `CCOc1ccc(N(CC)C(=O)c2nc(N(C)C)c3cnn(C)c3n2)cc1` returned an RP-LC retention time of 745 s.
In the case of `O=C(NC1CC1)c1nc(C(=O)N2CCN(c3ccccc3)CC2)cs1` it was 759 s; in that of `CCS(=O)(=O)N1CCCc2cc(C(=O)NC3CCCC3)ccc21`, 837 s.
In turn, `Cc1ccc(NC(=O)N2C[C@@H](F)C[C@H]2C(=O)N2CCCCC2)c(C)c1` had an RP-LC retention time of 732 s.
The figure for `CCOC(=O)c1sc(NC(=O)CSc2nccn2C)nc1-c1ccccc1` is 678 s.
Consider `CCOc1cc(=O)n2c(c1C(=O)Nc1ccc(C(=O)OC)cc1)CCCC2`, for which the RP-LC retention time was 707 s.
Consider `CCN1CCn2cc(S(=O)(=O)Nc3cc(F)ccc3F)cc2C1=O`, for which the RP-LC retention time stood at 715 s.
In the case of `CCN1C(=O)c2cccnc2Sc2cc(CNC(=O)c3ccoc3)ccc21` it was 702 s.
The figure for `Cc1noc2nc(C)n(CC(=O)NCc3cccc(F)c3)c(=O)c12` is 740 s; for `O=C(C1CC1)N1CCCC(OCc2nc(-c3cnccn3)no2)C1` (stereo not given) it is 651 s; for `CCOC(=O)Cn1c(=O)c2cnc(-c3ccc(C)cc3)nc2n(C)c1=O` it is 1060 s.
Take `Cc1ccccc1CNC(=O)C1(C)CCCN(C(=O)Nc2ccccc2Br)C1` (stereo not given): the RP-LC retention time amounted to 1020 s.
The figure for `O=C(NC1CCCCCC1)C1CCCN(c2nn3c(=O)c4c(nc3s2)CCCC4)C1` (stereo not given) is 838 s; for `Cc1nnc2ccc(-c3cccc(NC(=O)C4CCN(S(C)(=O)=O)CC4)c3)nn12` it is 605 s; for `CCOC(=O)c1ccc(NC(=O)CSc2ccc(N3CCCC(C(=O)NC4CC4)C3)nn2)cc1` (stereo not given) it is 678 s.
In the case of `O=C(NC1CC1)c1ccccc1OC1CN(Cc2ccsc2)C1` it was 600 s.
In the case of `CCc1nc2c(NC(=O)Nc3ccc4c(c3)CCC4)cccn2n1` it was 957 s; in that of `CCN(CC)S(=O)(=O)c1ccc2c(c1)CC(C(=O)N1CCCCCC1)N2C(C)=O` (stereo not given), 839 s; in that of `COc1cccc(CN2C[C@@H]3C(=O)N(Cc4ccc5c(c4)OCO5)C(=O)[C@@H]3C2)c1OC`, 704 s.
As for `Cc1scc2nc(C(=O)NCc3ccc(F)cc3)nc(N3CCCC3)c12`, the RP-LC retention time is 561 s.
In the case of `COCCC(=O)N1CC2CN(S(=O)(=O)c3ccc(C)cc3)CC(C1)O2` it was 684 s.
The figure for `Cc1cc(N2CCN(C(=O)c3nccc4ccccc34)CC2)nc2nncn12` is 597 s; for `CCn1cc(-c2nc(C(=O)Nc3ccc(Cl)cc3)cs2)c2cccnc21` it is 1330 s.
With `Cc1ccc(S(=O)(=O)NCC2CN(C(C)C)CC23CCCCC3)c(C)c1` (stereo not given), the RP-LC retention time worked out at 738 s.
The figure for `O=C(CN1C(=O)CCCc2cc(S(=O)(=O)N3CCOCC3)ccc21)N1CCc2ccccc2C1` is 786 s; for `CCc1nc(-c2ccc(S(=O)(=O)N3CCC(C(=O)NCc4cccs4)CC3)cc2)no1` it is 917 s.
As for `CCn1cc(CCN2CCN(S(=O)(=O)c3ccc(C)cc3)CC2)c2cccnc21`, the RP-LC retention time turned out to be 652 s.
In turn, `CCOC(=O)c1cccc(Nc2c(C(=O)N3CCCCC3CC)cnc3nc(C)ccc23)c1` (stereo not given) returned an RP-LC retention time of 704 s.
Consider `Cc1nc2cc(-c3noc(-c4cc(Cl)ccc4F)n3)ccc2o1`, for which the RP-LC retention time came to 1150 s.
In the case of `COC(=O)c1ccc(NC(=O)C2CCN(S(=O)(=O)c3ccc4c(c3)sc(=O)n4C)CC2)cc1` it was 854 s; in that of `CCc1cc(C(=O)Nc2cccc(OC)c2)nc2ccnn12`, 985 s.
`Cn1nccc1-c1cccc(-c2noc(/C=C/c3ccccc3)n2)c1`: the RP-LC retention time worked out at 1160 s.
In turn, `COc1ccccc1NC(=O)N1CCC(CNC(=O)c2ccc(Br)o2)CC1` returned an RP-LC retention time of 744 s.
In the case of `CCOC(=O)c1[nH]c(C)c(CCC(=O)N2CCC(C(=O)NCCc3ccco3)CC2)c1C` it was 743 s.
For `CC(C)NC(=O)C1CCCN(c2nc3ncn(CC(=O)NC4CCCC4)c(=O)c3s2)C1` (stereo not given), the RP-LC retention time came to 1210 s.
Turning to `Cc1nn(Cc2nc(-c3ccc(NC(=O)C4CCCO4)cc3)oc2C)c(C)c1C` (stereo not given), the RP-LC retention time stood at 793 s.
In the case of `O=C(c1cscn1)N1CCc2nn(CC3CC3)c(=O)n2CC1` it was 610 s; in that of `O=C(Cn1c(C(F)(F)F)nc2cc3c(cc21)OCCO3)Nc1ccccc1`, 867 s.
For the compound `COc1cccc(-c2nnc(Cc3nc(-c4cccc(OC)c4OC)no3)o2)c1`, the RP-LC retention time was 923 s.
Regarding `Cc1ccnc(N2CCCC(C(=O)NCc3ccc(F)cc3Cl)C2)n1` (stereo not given), the RP-LC retention time was found to be 792 s.
In the case of `CCc1nnc(-c2coc(S(=O)(=O)N3CCN(C4CCCCC4)CC3)c2)o1` it was 628 s; in that of `CCOC(=O)c1c(C)oc2nc(C)nc(NCCCN3CCN(c4ccc(F)cc4)CC3)c12`, 738 s.
In the case of `O=C(Cn1ccc2ccn(Cc3cccnc3)c2c1=O)NC1CCCC1` it was 605 s; in that of `CCn1cc(-c2nc(CC(=O)NCc3ccc(F)cc3)cs2)c2cccnc21`, 865 s.
In the case of `CNC(=O)c1cnn(-c2nc(N)c3ncn([C@@H]4O[C@H](CO)C(O)C4O)c3n2)c1` (stereo not given in full) it was 586 s; in that of `CCc1cccc(NC(=O)Cn2c(N)nc(COC)cc2=O)c1`, 650 s.
`O=C1Nc2ccccc2/C1=C\c1cnc[nH]1` registered an RP-LC retention time of 617 s.
`Cc1ccc(C)c(NC(=O)CN2C(=O)CCCc3cc(S(=O)(=O)N4CCCC4)ccc32)c1` had an RP-LC retention time of 918 s.
The figure for `Cc1ccc(S(=O)(=O)N(C)C)cc1-c1nnc(-c2ccccc2Cl)o1` is 1010 s; for `CCc1ccc(-c2ccc(=O)n(CCc3nc(-c4ccc(F)cc4)no3)n2)cc1` it is 1120 s.
The figure for `O=C(NC1CCCCC1)C1CCCN(c2cnc3nccnc3c2)C1` (stereo not given) is 691 s.
For the compound `O=C(Nc1cnn(-c2ncncc2N2CCOCC2)c1)c1ccc(C(F)(F)F)cc1`, the RP-LC retention time worked out at 714 s.
The compound `CC(=O)Nc1ccc(SCCCC(=O)Nc2nc3ccccc3s2)nn1` gave an RP-LC retention time of 691 s.
In the case of `COC(=O)c1ccc(C2Nc3ccc(C)cc3[C@H]3OCC[C@@H]23)cc1` (stereo not given in full) it was 1050 s.
The compound `CCOC(=O)c1nc(N2CCN(c3ccc(C)cc3C)CC2)c2ccccc2n1` came in with an RP-LC retention time of 1110 s.
In the case of `COc1cc(C(=O)N2CCN(c3cc(=O)n(C)c(=O)n3C)CC2)cc(OC)c1OC` it was 630 s; in that of `CCOC(=O)CNC(=O)Nc1ccc(-c2nc(-c3cc(C)ccc3C)co2)cc1`, 1040 s; in that of `Cc1ccc(-c2ncc3c(=O)n(CC(=O)NC(C)C)c(=O)n(C)c3n2)cc1`, 854 s.
